Results on 32 compounds are retold here after patent publication US20120142771A1, “BIPHENYLACETAMIDE DERIVATIVE” (Dainippon Sumitomo Pharma Co., Ltd., priority 2008, published 2012).

Like-named read-outs stand apart in the source and are kept apart here.

The subject of test [1] is maximum electroshock seizure (MES) model. The test is described as follows: Maximum electroshock seizure (MES) model test. It counts as in vivo, mice. To be noted: for responders at 100 mg/kg / responders at 50 mg/kg: Mus musculus, po, 1 h; for responders at 100 mg/kg / responders at 50 mg/kg / MES (positive number/tested number): inhibition of hind limb extension; for anticonvulsant action in maximum electroshock seizure (MES) model test: mice, oral 50 or 100 mg/kg, 1 hour after administration. Put shortly: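 Tonic hind-limb extension was elicited by corneal electroshock (60 Hz, 25 mA, 0.2 s) 1 h after oral dosing. Test compounds were given at 50 or 100 mg/kg to groups of 3 male Slc: ddY mice (20-30 g), vehicle controls receiving 0.5% tragacanth or 0.5% methylcellulose solution.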

Test [2] deals with subcutaneously pentetrazol-injected model (scPTZ). The test is described as follows: Subcutaneously pentetrazol-injected model (scPTZ) test. Type of test: in vivo, mice. To be noted: for responders at 100 mg/kg / responders at 50 mg/kg: Mus musculus, po, 1 h; for anticonvulsant action in subcutaneously pentetrazol-injected model (scPTZ) test: mice, oral 50 or 100 mg/kg. Put shortly:
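Pentetrazol (85 mg/kg, s.c.) was injected one hour after oral test compound at 50 or 100 mg/kg in groups of three male Slc:ddY mice weighing 20-30 g; vehicle controls got 0.5% tragacanth or 0.5% methylcellulose.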

Where [3] appears, read: 100 mg/kg oral, Slc: ddY male mice, 3 per group, electrical stimulation 1 hour after administration, read-out: MES (positive number/tested number) (converted).
The mark [4] stands for this setting: 100 mg/kg oral, Slc: ddY male mice, 3 per group, pentetrazol 85 mg/kg s.c. after 1 hour, observed 30 minutes for clonic convulsion, read-out: scPTZ (positive number/tested number) (converted).
Where [5] appears, read: 50 mg/kg oral, Slc: ddY male mice, 3 per group, electrical stimulation 1 hour after administration, read-out: MES (positive number/tested number) (converted).
The mark [6] stands for this setting: 50 mg/kg oral, Slc: ddY male mice, 3 per group, pentetrazol 85 mg/kg s.c. after 1 hour, observed 30 minutes for clonic convulsion, read-out: scPTZ (positive number/tested number) (converted).
Where [7] appears, read: pentetrazol 85 mg/kg s.c. after 1 hour.

With `CNC(=O)Cc1cc(F)ccc1-c1ccc(C(F)(F)F)cc1` [Example 136], the responders at 100 mg/kg in test [1] (setting [3]) is 100%; in test [2] (setting [4]) it was 0%.

For `NC(=O)Cc1ccccc1-c1ccc(Cl)c(F)c1` [Example 66], the responders at 100 mg/kg was 66.7% in test [1] (setting [3]) and 33.3% in test [2] (setting [4]).

In the case of `CNC(=O)Cc1cc(F)c(F)cc1-c1cccc(F)c1` [Example 148], the responders at 100 mg/kg in test [1] (setting [3]) is 0%; in test [2] (setting [4]) it was 33.3%.

As for `CNC(=O)Cc1ccccc1-c1cccc(C(F)(F)F)c1F` [Example 98], the responders at 50 mg/kg in test [1] (setting [5]) is 0%. The responders at 100 mg/kg in test [1] (setting [3]) is 66.7%; in test [2] (setting [4]) it was 0%.

As for `NC(=O)Cc1ccccc1-c1ccc(Br)cc1` [Example 49, 2-(4′-Bromobiphenyl-2-yl)acetamide], the responders at 50 mg/kg in test [1] (setting [5]) and in test [2] (setting [6]) was 0% throughout. Besides, the responders at 100 mg/kg in test [1] (setting [3]) and in test [2] (setting [4]) was 66.7% in each case.

Turning to `CNC(=O)C(F)c1ccccc1-c1cccc(F)c1` (stereo not drawn) [Example 161], the responders at 100 mg/kg is 66.7% in test [1] (setting [3]) and 0% in test [2] (setting [4]).

As to `NC(=O)Cc1c(F)cccc1-c1cccc(F)c1` [Example 140, 2-(3,3′-difluorobiphenyl-2-yl)acetamide], the responders at 50 mg/kg in test [1] (setting [5]) is 100%; in test [2] (setting [6]) it was 66.7%. The results for the responders at 100 mg/kg in test [1] (setting [3]) and in test [2] (setting [4]) were 100% and 66.7%, respectively. In addition, the “anticonvulsant action in maximum electroshock seizure (MES) model test” value in test [1] is reported as “anticonvulsant action was observed”. Besides, the “anticonvulsant action in subcutaneously pentetrazol-injected model (scPTZ) test” value in test [2] (setting [7]) is reported as “anticonvulsant action was observed”.

Take `CNC(=O)C(OC)c1ccccc1-c1ccccc1` (stereo not drawn) [Example 62, 2-(biphenyl-2-yl)-2-methoxy-N-methylacetamide]: the responders at 50 mg/kg in test [1] (setting [5]) was 66.7%. Besides, the results for the responders at 100 mg/kg in test [1] (setting [3]) and in test [2] (setting [4]) were 100% and 33.3%, respectively.

For the compound `CNC(=O)Cc1ccccc1-c1ccc(C(F)(F)F)cc1F` [Example 97], in test [1] (setting [5]), the responders at 50 mg/kg is 33.3%. Also, the responders at 100 mg/kg was 66.7% in test [1] (setting [3]) and 33.3% in test [2] (setting [4]).

As to `NC(=O)C(O)c1cc(F)ccc1-c1ccccc1F` (stereo not drawn) [Example 187], the responders at 100 mg/kg was 100% in test [1] (setting [3]) and 0% in test [2] (setting [4]).

For the compound `Cc1ccc(-c2ccccc2)c(CC(N)=O)c1` [Example 111], the responders at 100 mg/kg in test [1] (setting [3]) was 0%; in test [2] (setting [4]) it was 66.7%. Further, the responders at 50 mg/kg in test [2] (setting [6]) was 33.3%.

For the compound `NC(=O)Cc1ccccc1-c1cc(F)ccc1C(F)(F)F` [Example 82], the responders at 100 mg/kg was 33.3% in test [1] (setting [3]) and 100% in test [2] (setting [4]).

Take `CNC(=O)Cc1ccc(Cl)cc1-c1ccccc1F` [Example 126, 2-(5-chloro-2′-fluorobiphenyl-2-yl)-N-methylacetamide]: the responders at 50 mg/kg in test [1] (setting [5]) was 0%; in test [2] (setting [6]) it was 66.7%. Further, the responders at 100 mg/kg is 66.7% in test [1] (setting [3]) and 100% in test [2] (setting [4]).

In the case of `NC(=O)Cc1cc(Cl)ccc1-c1ccc(C(F)(F)F)cc1` [Example 142, 2-[4-chloro-4′-(trifluoromethyl)biphenyl-2-yl]acetamide], the responders at 50 mg/kg in test [1] (setting [5]) is 33.3%; in test [2] (setting [6]), 100%. Further, the responders at 100 mg/kg in test [1] (setting [3]) and in test [2] (setting [4]) was 66.7% each time.

Turning to `CNC(=O)Cc1ccccc1-c1cccc(Cl)c1` [Example 14], in test [1] (setting [5]), the responders at 50 mg/kg was 0%. The figures for the responders at 100 mg/kg in test [1] (setting [3]) and in test [2] (setting [4]) were 100% and 0%, respectively.

As for `NC(=O)C(O)c1ccc(F)cc1-c1cccc(F)c1` (stereo not drawn) [Example 182, 2-(3′,5-difluorobiphenyl-2-yl)-2-hydroxyacetamide], the responders at 50 mg/kg in test [1] (setting [5]) is 33.3%; in test [2] (setting [6]) it was 0%. Also, the responders at 100 mg/kg in test [1] (setting [3]) and in test [2] (setting [4]) was 100% throughout.

`NC(=O)C(O)c1ccccc1-c1ccc(F)cc1` (stereo not drawn) [Example 179]: in test [1] (setting [5]), the responders at 50 mg/kg was 33.3%. Besides, the responders at 100 mg/kg is 100% in test [1] (setting [3]) and 33.3% in test [2] (setting [4]).

Consider `COC(C(N)=O)c1ccccc1-c1cccc(F)c1` (stereo not drawn) [Example 199], for which the responders at 50 mg/kg in test [1] (setting [5]) is 33.3%. The results for the responders at 100 mg/kg in test [1] (setting [3]) and in test [2] (setting [4]) were 100% and 33.3%, respectively.

With `NC(=O)C(O)c1ccccc1-c1ccccc1F` (single isomer, unassigned) [Example 214, 2-(2′-Fluorobiphenyl-2-yl)-2-hydroxyacetamide], the “MES (positive number/tested number)” value is recorded as 2/3 in test [1] (50 mg/kg oral, Slc: ddY male mice, 3 per group, electrical stimulation 1 hour after administration) and 3/3 in test [1] (100 mg/kg oral, Slc: ddY male mice, 3 per group, electrical stimulation 1 hour after administration). Further, the “scPTZ (positive number/tested number)” value in test [2] (100 mg/kg oral, Slc: ddY male mice, 3 per group, pentetrazol 85 mg/kg s.c. after 1 hour, observed 30 minutes for clonic convulsion) is reported as 1/3.

Regarding `NC(=O)Cc1ccccc1-c1cc(Cl)ccc1F` [Example 87, 2-(5′-chloro-2′-fluorobiphenyl-2-yl)acetamide], the responders at 50 mg/kg was 33.3% in test [1] (setting [5]) and 0% in test [2] (setting [6]). Further, the figures for the responders at 100 mg/kg in test [1] (setting [3]) and in test [2] (setting [4]) were 100% and 66.7%, respectively.

With `NC(=O)Cc1ccccc1-c1ccc(C(F)(F)F)cc1Cl` [Example 84, 2-[2′-chloro-4′-(trifluoromethyl)biphenyl-2-yl]acetamide], the responders at 50 mg/kg in test [1] (setting [5]) is 0%; in test [2] (setting [6]) it was 33.3%. For the same compound, the responders at 100 mg/kg in test [1] (setting [3]) and in test [2] (setting [4]) was 66.7% in each case.

On to `NC(=O)C(F)c1ccccc1-c1ccccc1` (stereo not drawn) [Example 162, 2-(biphenyl-2-yl)-2-fluoroacetamide], for which the responders at 50 mg/kg in test [1] (read-out: MES (positive number/tested number), 50 mg/kg oral, Slc: ddY male mice, 3 per group, electrical stimulation 1 hour after administration) was 100%; in test [2] (read-out: scPTZ (positive number/tested number), 50 mg/kg oral, Slc: ddY male mice, 3 per group, pentetrazol 85 mg/kg s.c. after 1 hour, observed 30 minutes for clonic convulsion), 100%. The responders at 100 mg/kg is 100% in test [1] (read-out: MES (positive number/tested number), 100 mg/kg oral, Slc: ddY male mice, 3 per group, electrical stimulation 1 hour after administration) and 100% in test [2] (read-out: scPTZ (positive number/tested number), 100 mg/kg oral, Slc: ddY male mice, 3 per group, pentetrazol 85 mg/kg s.c. after 1 hour, observed 30 minutes for clonic convulsion). For the same compound, in test [1], the “anticonvulsant action in maximum electroshock seizure (MES) model test” value is “anticonvulsant action was observed”. Besides, the “anticonvulsant action in subcutaneously pentetrazol-injected model (scPTZ) test” value in test [2] (setting [7]) was “anticonvulsant action was observed”.

For the compound `NC(=O)C(F)(F)c1ccccc1-c1cccc(F)c1` [Example 170, 2,2-difluoro-2-(3′-fluorobiphenyl-2-yl)acetamide], the responders at 50 mg/kg in test [1] (setting [5]) was 0%; in test [2] (setting [6]), 33.3%. Moreover, the responders at 100 mg/kg is 100% in test [1] (setting [3]) and 66.7% in test [2] (setting [4]).

For the compound `CNC(=O)Cc1ccccc1-c1cccc(F)c1` [Example 26, 2-(3′-fluorobiphenyl-2-yl)-N-methylacetamide], the responders at 50 mg/kg in test [1] (setting [5]) was 100%. In addition, the responders at 100 mg/kg in test [1] (setting [3]) was 100%; in test [2] (setting [4]), 0%.

Take `CNC(=O)Cc1ccccc1-c1cc(F)ccc1C(F)(F)F` [Example 101]: the responders at 100 mg/kg in test [1] (setting [3]) is 100%; in test [2] (setting [4]) it was 0%.

With `NC(=O)Cc1cc(F)c(F)cc1-c1ccccc1` [Example 110], in test [1] (setting [5]), the responders at 50 mg/kg was 0%. Further, the responders at 100 mg/kg in test [1] (setting [3]) was 66.7%; in test [2] (setting [4]), 33.3%.

In the case of `NC(=O)Cc1ccc(C(F)(F)F)cc1-c1ccccc1` [Example 32], the responders at 50 mg/kg in test [1] (setting [5]) is 33.3%. For the same compound, the values for the responders at 100 mg/kg in test [1] (setting [3]) and in test [2] (setting [4]) were 100% and 0%, respectively.

For `CNC(=O)Cc1ccccc1-c1ccccc1` [Example 54, 2-(biphenyl-2-yl)-N-methylacetamide], the responders at 50 mg/kg in test [1] (setting [5]) is 100%. Further, the responders at 100 mg/kg was 100% in test [1] (setting [3]) and 33.3% in test [2] (setting [4]).

Turning to `NC(=O)Cc1cc(Cl)ccc1-c1cccc(F)c1` [Example 139], the responders at 100 mg/kg was 66.7% in test [1] (setting [3]) and 33.3% in test [2] (setting [4]).

In the case of `COC(C(=O)N(C)C)c1ccccc1-c1ccc(F)cc1` (stereo not drawn) [Example 205, 2-(4′-fluorobiphenyl-2-yl)-2-methoxy-N,N-dimethylacetamide], the figures for the responders at 50 mg/kg in test [1] (setting [5]) and in test [2] (setting [6]) were 0% and 33.3%, respectively. The responders at 100 mg/kg is 100% in test [1] (setting [3]) and 66.7% in test [2] (setting [4]).

As for `NC(=O)Cc1ccccc1-c1ccc(F)cc1F` [Example 154], in test [1] (setting [5]), the responders at 50 mg/kg was 33.3%. Further, the values for the responders at 100 mg/kg in test [1] (setting [3]) and in test [2] (setting [4]) were 100% and 33.3%, respectively.

`NC(=O)Cc1cc(C(F)(F)F)ccc1-c1ccccc1` [Example 116]: the responders at 100 mg/kg was 0% in test [1] (setting [3]) and 66.7% in test [2] (setting [4]). Besides, the responders at 50 mg/kg in test [2] (setting [6]) was 33.3%.
